The text below walks through data of patent EP4603105A1, “PHARMACEUTICAL COMPOSITION CONTAINING CYCLIC COMPOUND HAVING SELECTIVE KRAS INHIBITORY EFFECT AGAINST HRAS AND NRAS” (CHUGAI SEIYAKU KABUSHIKI KAISHA, priority 2022, dated 2024).

The term pIC50 denotes −log10 of the IC50, conventionally taken in molar units. Read a high pIC50 as a low IC50.

pIC50: −log10 of the molar value.

Assay [1] concerns the target GDP-bound NRAS wild-type protein (Homo sapiens, UniProt P01111). Nature of the assay: Binding to NRAS by surface plasmon resonance (SPR), KD and KD ratio to KRAS. Conditions: ratio of KD value for GDP-bound NRAS wild-type protein to KD value for KRAS (SPR). Summed up: (§1)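 Each cycle, GDP-bound biotin-Avi RAS was captured (~100–300 RU), compound concentrations were injected low to high for 75 s each at 100 µL/min, then the chip was regenerated. Buffer: HBS pH 7.4, 10 mM MgCl2, 10 µM GDP, 1 mM DTT, 4% DMSO; 30°C. KD from a 1:1 binding model.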
A general note: Surface plasmon resonance follows binding to a sensor surface in real time, without labels.

A further assay addresses HRAS wild-type protein (Homo sapiens, UniProt P01112). Description: Binding to HRAS by surface plasmon resonance (SPR), KD and KD ratio to KRAS. The following applies: ratio of KD value for HRAS wild-type protein to KD value for KRAS (SPR). In outline:
as §1

The subject of assay [2] is human lung cancer strain NCI-H441. The class given is cell-based. In outline: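 Signal came from […] measured per well once the reagent was added. Beforehand, cells were cultured at 37°C and 5% carbon dioxide on a compound series serially diluted in dimethyl sulfoxide.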

GDP-bound NRAS wild-type protein, sequence (P01111 whole entry): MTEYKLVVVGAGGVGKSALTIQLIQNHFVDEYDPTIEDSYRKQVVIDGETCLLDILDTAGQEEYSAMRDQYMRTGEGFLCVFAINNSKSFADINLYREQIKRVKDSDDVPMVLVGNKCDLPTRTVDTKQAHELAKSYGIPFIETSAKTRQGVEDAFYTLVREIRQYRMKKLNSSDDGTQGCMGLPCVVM
HRAS wild-type protein, sequence (P01112 whole entry): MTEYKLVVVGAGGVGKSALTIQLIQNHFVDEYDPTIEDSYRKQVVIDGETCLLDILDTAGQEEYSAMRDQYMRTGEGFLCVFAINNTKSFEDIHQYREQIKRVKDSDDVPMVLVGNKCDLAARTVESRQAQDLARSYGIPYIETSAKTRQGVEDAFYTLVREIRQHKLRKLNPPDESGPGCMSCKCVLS

Regarding `CC[C@H](C)[C@@H]1NC(=O)[C@H](CC(F)(F)F)N(C)C(=O)C[C@@H](C(=O)N(C)C)N(C)C(=O)[C@H](C2CCCC2)N(C)C(=O)C2(CC(C)(C)C2)NC(=O)[C@@H]2C[C@H](C)CN2C(=O)[C@H](CCc2cc(F)c(C(F)(F)F)c(F)c2)NC(=O)CN(C)C(=O)[C@H](Cc2ccc(C(F)(F)F)cc2)N2CC/C=C\C[C@@H](C2=O)N(C)C(=O)CN(C)C1=O` [PP1682], the “NRAS /KRAS” value in assay [1] is “AA (a compound having 20 or more is denoted as AA)”. For the same compound, at HRAS wild-type protein, the “HRAS /KRAS” value was “A (a compound having 10 or more and less than 20 is denoted as A)”. Also, in assay [2], the pIC50 is 8.59.
Turning to `CCC[C@H]1C(=O)N[C@@H]([C@@H](C)CC)C(=O)N(C)CC(=O)N(C)[C@H]2C/C=C\CCN(C2=O)[C@@H](Cc2ccc(C(F)(F)F)cc2)C(=O)N(C)CC(=O)N[C@@H](CCc2cc(F)c(C(F)(F)F)c(F)c2)C(=O)N2C[C@@H](C)C[C@H]2C(=O)NC2(CC(C)(C)C2)C(=O)N(C)[C@@H](C2CCCC2)C(=O)N(C)[C@H](C(=O)N(C)C)CC(=O)N1C` [PP1683], the “NRAS /KRAS” value in assay [1] was “A (a compound having 10 or more and less than 20 is denoted as A)”. In addition, on HRAS wild-type protein, the “HRAS /KRAS” value is “A (a compound having 10 or more and less than 20 is denoted as A)”. Besides, in assay [2], the negative-log IC50 (pIC50) is 8.60.
`CC[C@H](C)[C@@H]1NC(=O)[C@H](CC2CCC2)N(C)C(=O)C[C@@H](C(=O)N(C)C)N(C)C(=O)[C@H](C2CCCC2)N(C)C(=O)C2(CC(C)(C)C2)NC(=O)[C@@H]2C[C@H](C)CN2C(=O)[C@H](CCc2cc(F)c(C(F)(F)F)c(F)c2)NC(=O)CN(C)C(=O)[C@H](Cc2ccc(C(F)(F)F)cc2)N2CC/C=C\C[C@@H](C2=O)N(C)C(=O)CN(C)C1=O` [PP1684]: in assay [1], the “NRAS /KRAS” value is “A (a compound having 10 or more and less than 20 is denoted as A)”. Further, the “HRAS /KRAS” value at HRAS wild-type protein was “A (a compound having 10 or more and less than 20 is denoted as A)”. Moreover, the pIC50 in assay [2] was 8.11.
For the compound `CCCN(C)C(=O)[C@@H]1CC(=O)N(C)[C@@H](CC(F)F)C(=O)N[C@@H]([C@@H](C)CC)C(=O)N(C)CC(=O)N(C)[C@H]2C/C=C\CCN(C2=O)[C@@H](Cc2ccc(C(F)(F)F)cc2)C(=O)N(C)CC(=O)N[C@@H](CCc2cc(F)c(C(F)(F)F)c(F)c2)C(=O)N2C[C@H](F)C[C@H]2C(=O)NC2(CC(C)(C)C2)C(=O)N(C)[C@@H](C2CCCC2)C(=O)N1C` [PP1687], the “NRAS /KRAS” value in assay [1] was “A (a compound having 10 or more and less than 20 is denoted as A)”. Moreover, the “HRAS /KRAS” value on HRAS wild-type protein was “A (a compound having 10 or more and less than 20 is denoted as A)”. Also, the pIC50 in assay [2] is 8.57.
Consider `CC[C@H](C)[C@@H]1NC(=O)[C@H](CC(F)(F)F)N(C)C(=O)C[C@@H](C(=O)N(C)C)N(C)C(=O)[C@H](C2CCCC2)N(C)C(=O)C2(CC(C)(C)C2)NC(=O)[C@@H]2C[C@@H](F)CN2C(=O)[C@H](CCc2cc(F)c(C(F)(F)F)c(F)c2)NC(=O)CN(C)C(=O)[C@H](Cc2ccc(C(F)(F)F)cc2)N2CC/C=C\C[C@@H](C2=O)N(C)C(=O)CN(C)C1=O` [PP1688], for which the “NRAS /KRAS” value in assay [1] is “A (a compound having 10 or more and less than 20 is denoted as A)”. In addition, the “HRAS /KRAS” value at HRAS wild-type protein was “A (a compound having 10 or more and less than 20 is denoted as A)”. This compound also had a pIC50 in assay [2] of 8.82.
For the compound `CCC[C@H]1C(=O)N[C@@H]([C@@H](C)CC)C(=O)N(C)CC(=O)N(C)[C@H]2C/C=C\CCN(C2=O)[C@@H](Cc2ccc(C(F)(F)F)cc2)C(=O)N(C)CC(=O)N[C@@H](CCc2cc(F)c(C(F)(F)F)c(F)c2)C(=O)N2C[C@H](F)C[C@H]2C(=O)NC2(CC(C)(C)C2)C(=O)N(C)[C@@H](C2CCCC2)C(=O)N(C)[C@H](C(=O)N(C)C)CC(=O)N1C` [PP1689], in assay [1], the “NRAS /KRAS” value was “A (a compound having 10 or more and less than 20 is denoted as A)”. Moreover, the “HRAS /KRAS” value on HRAS wild-type protein is “B (a compound having 3 or more and less than 10 is denoted as B)”. In assay [2], this compound had a pIC50 of 8.85.
For `C#CC[C@H]1C(=O)N[C@@H]([C@@H](C)CC)C(=O)N(C)CC(=O)N(C)[C@H]2C/C=C\CCN(C2=O)[C@@H](Cc2ccc(C(F)(F)F)cc2)C(=O)N(C)CC(=O)N[C@@H](CCc2cc(F)c(C(F)(F)F)c(F)c2)C(=O)N2C[C@H](F)C[C@H]2C(=O)NC2(CC(C)(C)C2)C(=O)N(C)[C@@H](C2CCCC2)C(=O)N(C)[C@H](C(=O)N(C)CC)CC(=O)N1C` [PP1691], in assay [1], the “NRAS /KRAS” value was “A (a compound having 10 or more and less than 20 is denoted as A)”. At HRAS wild-type protein, the “HRAS /KRAS” value is “A (a compound having 10 or more and less than 20 is denoted as A)”. The compound further showed a pIC50 in assay [2] of 8.51.
Turning to `C#CC[C@H]1C(=O)N[C@@H]([C@@H](C)CC)C(=O)N(C)CC(=O)N(C)[C@H]2C/C=C\CCN(C2=O)[C@@H](Cc2ccc(C(F)(F)F)cc2)C(=O)N(C)CC(=O)N[C@@H](CCc2cc(F)c(C(F)(F)F)c(F)c2)C(=O)N2C[C@H](F)C[C@H]2C(=O)NC2(CC(C)(C)C2)C(=O)N(C)[C@@H](C2CCCC2)C(=O)N(C)[C@H](C(=O)N(C)CCC)CC(=O)N1C` [PP1692], in assay [1], the “NRAS /KRAS” value was “AA (a compound having 20 or more is denoted as AA)”. For the same compound, the “HRAS /KRAS” value at HRAS wild-type protein is “A (a compound having 10 or more and less than 20 is denoted as A)”. This compound gave a negative-log IC50 (pIC50) in assay [2] of 8.37.
`CC[C@H](C)[C@@H]1NC(=O)[C@H](CC(C)C)N(C)C(=O)C[C@@H](C(=O)N(C)CC)N(C)C(=O)[C@H](C2CCCC2)N(C)C(=O)C2(CC(C)(C)C2)NC(=O)[C@@H]2C[C@@H](F)CN2C(=O)[C@H](CCc2cc(F)c(C(F)(F)F)c(F)c2)NC(=O)CN(C)C(=O)[C@H](Cc2ccc(C(F)(F)F)cc2)N2CC/C=C\C[C@@H](C2=O)N(C)C(=O)CN(C)C1=O` [PP1694]: the “NRAS /KRAS” value in assay [1] was “A (a compound having 10 or more and less than 20 is denoted as A)”. For the same compound, the “HRAS /KRAS” value on HRAS wild-type protein is “A (a compound having 10 or more and less than 20 is denoted as A)”. Besides, the pIC50 in assay [2] was 8.39.
Turning to `CCCN(C)C(=O)[C@@H]1CC(=O)N(C)[C@@H](COC)C(=O)N[C@@H]([C@@H](C)CC)C(=O)N(C)CC(=O)N(C)[C@H]2C/C=C\CCN(C2=O)[C@@H](Cc2ccc(C(F)(F)F)cc2)C(=O)N(C)CC(=O)N[C@@H](CCc2cc(F)c(C(F)(F)F)c(F)c2)C(=O)N2C[C@H](F)C[C@H]2C(=O)NC2(CC(C)(C)C2)C(=O)N(C)[C@@H](C2CCCC2)C(=O)N1C` [PP1696], the “NRAS /KRAS” value in assay [1] is given as “AA (a compound having 20 or more is denoted as AA)”. The “HRAS /KRAS” value at HRAS wild-type protein is “A (a compound having 10 or more and less than 20 is denoted as A)”. This compound also gave a pIC50 in assay [2] of 8.54.
In the case of `CCCOC[C@H]1C(=O)N[C@@H]([C@@H](C)CC)C(=O)N(C)CC(=O)N(C)[C@H]2C/C=C\CCN(C2=O)[C@@H](Cc2ccc(C(F)(F)F)cc2)C(=O)N(C)CC(=O)N[C@@H](CCc2cc(F)c(C(F)(F)F)c(F)c2)C(=O)N2C[C@H](F)C[C@H]2C(=O)NC2(CC(C)(C)C2)C(=O)N(C)[C@@H](C2CCCC2)C(=O)N(C)[C@H](C(=O)N(C)CC)CC(=O)N1C` [PP1697], the “NRAS /KRAS” value in assay [1] was “A (a compound having 10 or more and less than 20 is denoted as A)”. In addition, on HRAS wild-type protein, the “HRAS /KRAS” value was “A (a compound having 10 or more and less than 20 is denoted as A)”. Further, the negative logarithm of the IC50 (pIC50) in assay [2] was 8.44.
